Numbers after ± are expanded uncertainties.
Assay: wn = mass fraction of the nth substance listed
Settings: 101 kPa, Liquid, Vibrating tube method

## [Cl-].[Na+] [sodium chloride] + O
293.15 K, w1 = 0.02
  mass density: 1012.4 ± 0.8 kg/m3
293.15 K, w1 = 0.04
  mass density: 1026.7 ± 0.8 kg/m3
303.15 K, w1 = 0.02
  mass density: 1012.4 ± 0.8 kg/m3
303.15 K, w1 = 0.04
  mass density: 1026.7 ± 0.8 kg/m3
313.15 K, w1 = 0.02
  mass density: 1006.1 ± 0.8 kg/m3
